According to ChEMBL document CHEMBL4808244, “Design, synthesis and anti-fibrosis evaluation of imidazo[1,2-a]pyridine derivatives as potent ATX inhibitors” (Bioorg Med Chem, 2021):
Active and inactive are the calls of the source. The rule behind the calls is not given here.

These compounds were tested against Autotaxin (Homo sapiens, UniProt Q13822) (assay: Inhibition of human ATX using FS-3 as substrate preincubated for 45 mins followed by substrate addition and measured every 1 min for 30 mins by fluorescence microplate reader assay). Settings: not given.

| IC50 | SMILES |
| --- | --- |
| 237 nM | CCc1nc2c(C)cc(-c3ccc(CN4CCC(O)CC4)cc3)cn2c1NC(=O)NCc1ccc(Cl)cc1 |
| 7.41 nM | CCc1nc2c(C)cc(-c3ccc(CN4CCC(O)CC4)cc3)cn2c1NC(=O)NCc1ccc(OC)c(Cl)c1 |
| 1070 nM | CCc1nc2c(C)cc(-c3ccc(CN4CCCC4)cc3)cn2c1NC(=O)NCc1ccc(Cl)cc1 |
| 451 nM | CCc1nc2c(C)cc(-c3ccc(CN4CCN(C)CC4)cc3)cn2c1NC(=O)NCc1ccc(F)cc1 |
| 11.7 nM | CCc1nc2c(C)cc(-c3ccc(C(=O)N4CCC(O)CC4)cc3)cn2c1NC(=O)NCc1ccc(OC)c(Cl)c1 |
| > 1000 nM | CCc1nc2c(C)cc(-c3ccc(C(=O)N4CCN(CC)CC4)cc3)cn2c1NC(=O)NCc1ccc(F)cc1 |
| 9.17 nM | CCc1nc2c(C)cc(-c3ccc(C(=O)N4CCC(O)CC4)cc3)cn2c1NC(=O)NCc1ccc(F)cc1 |
| 5.43 nM | CCc1nc2c(C)cc(-c3ccc(CN4CCN(CCO)CC4)cc3)cn2c1NC(=O)NCc1ccc(OC)c(Cl)c1 |
| 626 nM | CCc1nc2c(C)cc(-c3ccc(C(=O)N4CCCCC4)cc3)cn2c1NC(=O)NCc1ccc(F)cc1 |
| 283 nM | CCc1nc2c(C)cc(-c3ccc(CN4CCOCC4)cc3)cn2c1NC(=O)NCc1ccc(Cl)cc1 |
| 79.1 nM | COc1ccc(CNC(=O)Nc2c(C)nc3c(C)cc(-c4ccc(CN5CCN(CCO)CC5)cc4)cn23)cc1Cl |
| > 1000 nM | CCc1nc2c(C)cc(-c3ccc(CN4CCSCC4)cc3)cn2c1NC(=O)NCc1ccc(OC)c(Cl)c1 |
| 11 nM | COc1ccc(CNC(=O)Nc2c(C)nc3c(C)cc(-c4ccc(CN5CCC(O)CC5)cc4)cn23)cc1Cl |
| 647 nM | CCc1nc2c(C)cc(-c3ccc(CN4CCCCC4)cc3)cn2c1NC(=O)NCc1ccc(Cl)cc1 |
| 257 nM | CCc1nc2c(C)cc(-c3ccc(C(=O)N4CCN(C)CC4)cc3)cn2c1NC(=O)NCc1ccc(F)cc1 |
| 688 nM | CCc1nc2c(C)cc(-c3ccc(CN4CCN(CC)CC4)cc3)cn2c1NC(=O)NCc1ccc(Cl)cc1 |
| 71.7 nM | CCc1nc2c(C)cc(-c3ccc(CN4CCOCC4)cc3)cn2c1NC(=O)NCc1ccc(OC)c(Cl)c1 |
| 497 nM | CCc1nc2c(C)cc(-c3ccc(CN4CCC[C@H]4CO)cc3)cn2c1NC(=O)NCc1ccc(OC)c(Cl)c1 |
| 213 nM | CCc1nc2c(C)cc(-c3ccc(C(=O)N4CCN(C)CC4)cc3)cn2c1NC(=O)NCc1ccc(OC)c(Cl)c1 |

| SMILES | IC50 |
| --- | --- |
| CCc1nc2c(C)cc(-c3ccc(CN4CCC(O)CC4)cc3)cn2c1NC(=O)NCc1ccc(F)cc1 | 1.72 nM |

These compounds were tested on Mus musculus (assay: Antifibrotic activity in C57BL/6 mouse model of bleomycin-induced idiopathic pulmonary fibrosis assessed as inhibition of collagen deposition at 30-60 mg/kg, po dosed for 31 consecutive days followed by tracheal administration of bleomycin by masson's staining based histopathological analysis). Settings: time 31.0 day.
Format: functional, organism-based

| SMILES | inhibition |
| --- | --- |
| CCc1nc2c(C)cc(-c3ccc(CN4CCC(O)CC4)cc3)cn2c1NC(=O)NCc1ccc(F)cc1 | Active |
| CCc1nc2c(C)cc(N3CCN(CC(=O)N4CC(O)C4)CC3)cn2c1N(C)c1nc(-c2ccc(F)cc2)c(C#N)s1 | Active |

Each compound was assayed on Mus musculus (assay: Antifibrotic activity in C57BL/6 mouse model of bleomycin-induced idiopathic pulmonary fibrosis assessed as survival rate at 30-60 mg/kg, po dosed for 31 consecutive days followed by tracheal administration of bleomycin relative to control). Settings: C57BL/6, po, 744 h, time 31 day.
Format: functional

| SMILES | survival at 60 mg/kg |
| --- | --- |
| CCc1nc2c(C)cc(-c3ccc(CN4CCC(O)CC4)cc3)cn2c1NC(=O)NCc1ccc(F)cc1 | 100% |

Each compound was assayed on Mus musculus (assay: Antifibrotic activity in C57BL/6J mouse model of bleomycin-induced idiopathic pulmonary fibrosis assessed as inhibition of changes in lung textures at 30-60 mg/kg, po dosed for 31 consecutive days followed by tracheal administration of bleomycin by masson's staining based histopathological analysis). Settings: time 31.0 day.
Format: functional, organism-based

| SMILES | inhibition |
| --- | --- |
| CCc1nc2c(C)cc(-c3ccc(CN4CCC(O)CC4)cc3)cn2c1NC(=O)NCc1ccc(F)cc1 | Active |
| CCc1nc2c(C)cc(N3CCN(CC(=O)N4CC(O)C4)CC3)cn2c1N(C)c1nc(-c2ccc(F)cc2)c(C#N)s1 | Active |
